Test results as given in patent US9303069B2, “Peptides for treating cancer” (University of Mississippi Medical Center, priority 2014, dated 2016).
“Also recorded” adds a separate entry of the source. Ends that are not written are not given here.

Legend:
HOSE cells = format: cell-based, human; conditions: 48 h
Method: (§1) Thus, a peptide (hereafter IRIS peptide) composed of a cell/nucleus penetrating signal (FIG. 26) fused to BRCA1-IRIS intron 11 (FIG. 26) was synthesized. Equal numbers of HOSE, HOSE/IRIS, SKOV3, OVCAR3, OVCAR420 and OV-90 cells were grown in the presence of increasing concentrations of IRIS peptide for 48 hours.
(§2) Cell viability measurement. Cell viability under different experimental conditions was determined using the MTS assay […]. Briefly, SKOV3, OVACAR3, HOSE and HOSE/IRIS cells (2.5×10^4 cells per well) were seeded in 96 well plates and incubated overnight at 37° C. in 10% humidified CO2 atmosphere in varying concentrations of IRIS peptide, or inhibitors of ErbB2 (CP-724714), EGFR (Erlotinib), TrkB (K252a), JNK (SP600125), p38 (SB203580), ERK (PD98059) and PI3′K/AKT (LY294002) inhibitors for 24 hours at 37° C. Cell Titer 96® Aqueous (Promega, Madison, Wis., USA) was used to measure viability following manufactures instructions. Cell viability (%) was expressed as a ratio to control cells×100. Growth inhibition was also determined by manually counting cells in five different microscopic fields. Change in cell numbers (fold) was expressed as a ratio to control cells×100. All experiments were done in at least triplicates, three different times. * is p≦0.05, ** is p≦0.001 and *** is p≦0.0001.

HOSE/IRIS cells = format: cell-based, human; conditions: 48 h
Method: as §1, §2

OV-90 cells = format: cell-based, human; conditions: 48 h
Method: as §1, §2

OVCAR3 cells = format: cell-based, human; conditions: 48 h
Method: as §1, §2

OVCAR420 cells = format: cell-based, human; conditions: 48 h
Method: as §1, §2

SKOV3 cells = test: Tumor-sphere forming assay, SKOV3; format: cell-based, human; conditions: SKOV3, ultra-low binding dishes, two weeks; IRIS peptide 5 μM every third day
Method: Tumor-sphere: SKOV3 cells treated with scrambled or IRIS peptide (5 μM, added every third day) or expressing BRCA1-IRIS shRNA were grown in ultra-low binding culture dishes as single cells. […] BRCA1-IRIS silencing led to ˜7 fold decrease in tumor-sphere number (FIG. 43) and diameter (FIG. 43, inset), and an even more pronounced effect was detected with IRIS peptide (FIG. 43, and inset).
Tumor-sphere forming assay. Subconfluent monolayer cells were trypsinized and dissociated thoroughly to prepare single cell suspension. 1000 cells were plated, per well, onto ultra-low attachment 6-well plates (Corning Life Sciences, Union City, Calif.) in Dulbecco's modified Eagle's medium (DMEM)/F12 supplemented with 10% FBS, 2% B27 (Invitrogen), 10 ng/ml basic-fibroblast growth factor and 10 ng/mL epidermal growth factor. Cells were then incubated at 37° C. in humidified air with 10% CO2. 500 μl of medium was added to each well every 3 days, the medium containing the scrambled or IRIS peptide. […]

[1] = test system: HME, MDA-MB-231, MDA-MB-468 and BT549 cells; test: Survival of breast cell lines after siRNA transfection followed by IRIS peptide; format: cell-based, human; conditions: siRNA 48 hours, then IRIS peptide 24 hours
Method: To rule out any off target effect of this peptide, HME, MDA-MB-231, MDA-MB-468 and BT549 cells were first transfected with luciferase (siLuc) or BRCA1-IRIS (siIRIS) siRNA for 48 hours before they were exposed to increasing concentrations of IRIS peptide for an additional 24 hours. As would be expected from treatments that target the same target, whether inactivating BRCA1-IRIS (FIG. 81) or depleting its mRNA first (FIG. 82) the percentages of cells remained following these treatments were identical (see FIG. 83).
Small interfering RNA transfections. Specific siRNAs for luciferase (negative control) or human BRCA1-IRIS were obtained from Ambion, USA. Transfection was done using Oligofectamine™ reagent (GibcoBRL Inc, USA) and standard protocol (for reference see ElShamy and Livingston, 2004). Knockdwon of the target protein was usually confirmed by Western blotting 72 hours later. Cell viability was evaluated by MTS or by manual counting after 72 hours of siRNA transfection or combined with paclitaxel (24 hour exposure). Each experiment was done in triplicate, repeated three separate times

caspase 3/7 = test: Cleaved / activated caspase 3/7 in MDA-MB-231 and MDA-MB-468 cells; format: cell-based, human; conditions: increasing concentrations of IRIS peptide
Method: To assess whether BRCA1-IRIS inactivation can sensitize TNBC cells to lower paclitaxel concentrations, MDA-MB-231 and MDA-MB-468 were exposed to 1 μM of paclitaxel 0, 1, 2, 5 and 10 μM of IRIS peptide for 24 hours. […] Perhaps more importantly, in the presence of only 1 μM of paclitaxel, the IC50 of IRIS peptide was reduced to <2 μM in both cell lines (dark color lines in FIG. 85).

[2] = test system: HME/IRIS, MDA-MB-231 and MDA-MB-468 cells; test: Acini formation in matrigel-coated wells, breast cell lines; format: cell-based, human; conditions: day 10; peptide added every third day
Source text: Next, it was considered whether BRCA1-IRIS depletion or inactivation could impact the aggressive behavior in breast cancer cell lines. BRCA1-IRIS silenced HME, HME/IRIS, MDA-MB-231 and MDA-MB-468 cells were layered on matrigel-coated wells. Moreover, parental cell lines were layered on the matrigel and grown in the presence of scrambled or IRIS peptide (added every third day). […] On day 10, HME acini became slightly bigger but remained round (FIG. 89, 1st column and FIG. 90). Acini formed by HME/IRIS, MDA-MB-231 and MDA-MB-468 were large/non-round on day 10 (FIG. 89, 1st column and FIGS. 90 and 91). BRCA1-IRIS depletion (FIG. 89, 2nd column and FIG. 91) or inactivation (FIG. 89, 3rd column and Suppl. FIG. 91) reverted this phenotype back to near normal “small/round” acini. Quantitatively, BRCA1-IRIS overexpression led to >3-fold increase in HME cells aggressiveness, and its depletion or inactivation reduced that phenotype in tumor cells by >3 fold (FIG. 90 and FIG. 91).

HME cells = conditions: 48 h
Method: All cell lines were exposed to increasing concentrations of paclitaxel and BRCA1-IRIS expression, and cells' viability was then measured.
Cell viability measurement. Cell viability under different experimental conditions was determined using the MTS assay. Briefly, cells (2.5×10^4 cells per well) were seeded in 96-well plates and incubated overnight at 37° C. in 10% humidified CO2 atmosphere. The next day they were incubated with varying concentration of peptide, or inhibitors for 24 hours at 37° C. Cell viability was determined using cell Titer 96® Aqueous (Promega, Madison, Wis., USA) following manufacturer's instructions. Cell viability (%) was expressed as a ratio of treated cells to control cells×100. […] Each experiment was done in triplicate, repeated three separate times.

Sequence: RRIRPRPPRLPRPRPRPLPFPRPGIGTRFLCLPQSIYRSELNVYAFGEHILQISKYS [IRIS peptide]
- IC50 (HOSE cells): ~1000 nM
- IC50 (HOSE/IRIS cells): ~10000 nM
- IC50 (OV-90 cells): ~5000 nM
- IC50 (OVCAR3 cells): ~10000 nM
- IC50 (OVCAR420 cells): ~1000 nM
- tumor-sphere formation (SKOV3 cells): formed no tumor-spheres
- percentages of cells remaining, IRIS peptide after siIRIS versus after siLuc [1]: identical
- cleaved / activated caspase 3/7 (caspase 3/7): gradual increase in activated caspase 3/7; also recorded: increase cleaved caspase 3/7 in both cell lines
- reduction of aggressive (large/non-round) acini phenotype in tumor cells [2]: > 3 fold
- IC50 (HME cells): ~500 nM
